Test results as given in patent US6608086B2, “Dihydropyridines and new uses thereof” (Synaptic Pharmaceutical Corporation, priority 1993, dated 2003).
Where two headings read alike, the source gives them in different places.

How the values were obtained:
[1] = biological target: T1, α1A Human Adrenergic Receptor (Homo sapiens, UniProt P25100); assay: Radioligand binding, [3H]prazosin, cloned human α1A adrenergic receptor
T1 construct: The entire coding region of α1A (1719 bp); expressed in transfected cells
T1 sequence (P25100 1-572): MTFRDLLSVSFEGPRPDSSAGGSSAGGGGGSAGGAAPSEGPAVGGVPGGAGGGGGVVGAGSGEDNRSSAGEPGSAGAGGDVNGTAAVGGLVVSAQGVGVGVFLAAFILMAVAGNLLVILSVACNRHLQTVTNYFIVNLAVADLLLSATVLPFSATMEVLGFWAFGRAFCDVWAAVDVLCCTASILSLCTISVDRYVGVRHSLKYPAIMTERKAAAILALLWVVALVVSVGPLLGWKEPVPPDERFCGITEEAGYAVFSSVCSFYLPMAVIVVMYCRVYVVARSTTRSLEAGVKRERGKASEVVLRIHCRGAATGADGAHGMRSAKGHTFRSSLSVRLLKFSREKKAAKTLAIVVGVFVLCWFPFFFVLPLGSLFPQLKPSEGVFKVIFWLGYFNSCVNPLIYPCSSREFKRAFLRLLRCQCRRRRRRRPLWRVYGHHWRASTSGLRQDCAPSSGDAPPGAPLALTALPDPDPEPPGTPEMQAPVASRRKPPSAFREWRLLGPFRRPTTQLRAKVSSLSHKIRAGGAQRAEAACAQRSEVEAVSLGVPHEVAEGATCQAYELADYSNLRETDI
Summary of the method: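 Membranes from LM(tk−) cells transfected with human α1A were incubated with 0.5 nM [3H]prazosin in 50 mM Tris-HCl, 1 mM MgCl2, 0.1% ascorbic acid, pH 7.5, for 20 min at 37° C. Nonspecific binding was defined with 10 μM phentolamine. Bound ligand was separated by GF/B filtration.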

α2B receptor = biological target: T2, α2B receptor (Homo sapiens, UniProt P18089); assay: Competition binding, [3H]rauwolscine, human α2B receptor; settings: [3H]rauwolscine, LM(tk-) cell line L-NGC-α2B; SEM and n in lines below
T2 construct: host or cells: LM(tk-) cells, line L-NGC-α2B
T2 sequence (P18089 1-450): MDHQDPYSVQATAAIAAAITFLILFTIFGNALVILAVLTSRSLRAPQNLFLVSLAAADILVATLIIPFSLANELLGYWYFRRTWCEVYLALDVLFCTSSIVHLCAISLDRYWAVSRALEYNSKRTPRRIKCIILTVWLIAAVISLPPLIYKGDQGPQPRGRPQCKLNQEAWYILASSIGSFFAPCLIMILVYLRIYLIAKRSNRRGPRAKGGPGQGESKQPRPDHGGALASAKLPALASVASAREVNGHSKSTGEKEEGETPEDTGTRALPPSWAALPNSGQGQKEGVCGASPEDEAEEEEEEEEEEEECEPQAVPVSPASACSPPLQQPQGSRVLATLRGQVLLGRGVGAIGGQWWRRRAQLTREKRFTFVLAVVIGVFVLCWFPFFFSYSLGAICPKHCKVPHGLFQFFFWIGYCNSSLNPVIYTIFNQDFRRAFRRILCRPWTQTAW
Source text: (§1) The protocols for these experiments are given below.
(§2) α2 Human Adrenergic Receptors:
(§3) To determine the potency of […], antagonists at the α2 receptors, LM(tk−) cell lines stably transfected with the genes encoding the α2A, α2B, and α2C receptors were used. The cell line expressing the α2A receptor is designated L-α2A, and was deposited on Nov. […] The cell line expressing the α2B receptor is designated L-NGC-α2B, and was deposited on Oct. […] The cell line expressing the α2C receptor is designated L-α2C, and was deposited on Nov. […] Cell lysates were prepared as described above (see Radioligand Binding Assays), and suspended in 25 mM glycylglycine buffer (pH 7.6 at room temperature). Equilibrium competition binding assay were performed using [3H]rauwolscine (0.5 nM), and nonspecific binding was determined by incubation with 10 μM phentolamine. The bound radioligand was separated by filtration through GF/B filters using a cell harvester.

L-type calcium channel = biological target: T3, L-type calcium channel (Rattus norvegicus, UniProt P22002); assay: Competition binding of [3H]nitrendipine to membrane fragments of rat cardiac muscle
T3 construct: membrane fragments of rat cardiac muscle; from tissue; host or cells: rat cardiac muscle membranes
T3 sequence (P22002 whole entry, other chains not shown, the tested form may be a part): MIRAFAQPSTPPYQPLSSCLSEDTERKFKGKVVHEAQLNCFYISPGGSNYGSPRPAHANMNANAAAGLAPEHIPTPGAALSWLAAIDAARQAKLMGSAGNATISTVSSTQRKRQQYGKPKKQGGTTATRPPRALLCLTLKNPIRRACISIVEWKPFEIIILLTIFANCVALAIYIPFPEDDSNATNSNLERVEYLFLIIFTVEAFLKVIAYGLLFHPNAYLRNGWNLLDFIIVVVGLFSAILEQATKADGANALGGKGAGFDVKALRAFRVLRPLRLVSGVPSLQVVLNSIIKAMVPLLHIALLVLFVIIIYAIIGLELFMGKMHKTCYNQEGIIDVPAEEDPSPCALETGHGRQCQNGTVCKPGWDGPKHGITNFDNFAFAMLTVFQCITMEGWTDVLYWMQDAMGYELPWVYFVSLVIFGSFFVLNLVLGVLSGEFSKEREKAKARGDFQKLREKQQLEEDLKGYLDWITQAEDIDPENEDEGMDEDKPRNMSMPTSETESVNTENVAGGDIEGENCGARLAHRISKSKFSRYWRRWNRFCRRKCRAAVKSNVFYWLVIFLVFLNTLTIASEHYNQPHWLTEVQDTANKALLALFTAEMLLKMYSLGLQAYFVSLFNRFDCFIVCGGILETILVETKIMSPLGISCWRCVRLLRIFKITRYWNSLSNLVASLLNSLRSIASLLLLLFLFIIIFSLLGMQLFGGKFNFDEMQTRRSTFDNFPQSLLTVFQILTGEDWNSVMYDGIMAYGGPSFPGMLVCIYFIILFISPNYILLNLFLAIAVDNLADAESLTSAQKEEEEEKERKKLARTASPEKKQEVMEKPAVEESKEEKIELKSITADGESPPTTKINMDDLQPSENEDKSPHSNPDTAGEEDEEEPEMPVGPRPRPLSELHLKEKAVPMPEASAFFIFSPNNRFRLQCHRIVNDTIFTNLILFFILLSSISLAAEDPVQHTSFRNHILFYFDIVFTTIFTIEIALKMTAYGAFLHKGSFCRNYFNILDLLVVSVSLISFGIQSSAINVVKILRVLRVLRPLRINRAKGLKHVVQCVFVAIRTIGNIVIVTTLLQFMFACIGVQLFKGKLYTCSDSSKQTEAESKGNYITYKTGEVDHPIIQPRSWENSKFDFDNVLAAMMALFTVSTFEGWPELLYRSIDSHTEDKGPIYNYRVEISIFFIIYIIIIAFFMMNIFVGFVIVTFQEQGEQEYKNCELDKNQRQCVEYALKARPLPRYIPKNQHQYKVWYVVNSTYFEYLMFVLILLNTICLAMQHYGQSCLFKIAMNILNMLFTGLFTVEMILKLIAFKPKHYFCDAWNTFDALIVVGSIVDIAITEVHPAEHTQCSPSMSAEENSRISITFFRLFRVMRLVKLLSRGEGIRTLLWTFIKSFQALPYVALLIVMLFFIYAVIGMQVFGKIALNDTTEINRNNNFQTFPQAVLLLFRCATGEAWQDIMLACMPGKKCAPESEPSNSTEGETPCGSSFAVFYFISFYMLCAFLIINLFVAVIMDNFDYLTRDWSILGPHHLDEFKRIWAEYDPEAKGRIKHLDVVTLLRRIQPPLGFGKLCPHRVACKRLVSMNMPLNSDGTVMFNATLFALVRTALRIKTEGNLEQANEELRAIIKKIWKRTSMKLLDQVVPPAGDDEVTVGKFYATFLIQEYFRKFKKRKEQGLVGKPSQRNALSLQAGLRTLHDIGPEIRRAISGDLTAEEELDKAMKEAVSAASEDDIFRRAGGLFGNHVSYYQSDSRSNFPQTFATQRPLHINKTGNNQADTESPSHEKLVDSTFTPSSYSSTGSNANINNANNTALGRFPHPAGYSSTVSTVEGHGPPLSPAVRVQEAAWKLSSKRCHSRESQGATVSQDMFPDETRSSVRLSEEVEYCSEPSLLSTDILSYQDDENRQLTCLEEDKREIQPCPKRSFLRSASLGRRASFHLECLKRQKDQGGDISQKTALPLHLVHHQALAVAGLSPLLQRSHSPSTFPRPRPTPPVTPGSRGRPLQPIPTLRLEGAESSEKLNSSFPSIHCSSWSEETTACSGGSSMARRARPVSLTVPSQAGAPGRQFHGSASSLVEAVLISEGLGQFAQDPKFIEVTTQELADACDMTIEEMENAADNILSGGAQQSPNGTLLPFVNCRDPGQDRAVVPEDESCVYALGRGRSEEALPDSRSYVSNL
T3 sequence (P54290 25-944 partner limits assumed, other chains not shown): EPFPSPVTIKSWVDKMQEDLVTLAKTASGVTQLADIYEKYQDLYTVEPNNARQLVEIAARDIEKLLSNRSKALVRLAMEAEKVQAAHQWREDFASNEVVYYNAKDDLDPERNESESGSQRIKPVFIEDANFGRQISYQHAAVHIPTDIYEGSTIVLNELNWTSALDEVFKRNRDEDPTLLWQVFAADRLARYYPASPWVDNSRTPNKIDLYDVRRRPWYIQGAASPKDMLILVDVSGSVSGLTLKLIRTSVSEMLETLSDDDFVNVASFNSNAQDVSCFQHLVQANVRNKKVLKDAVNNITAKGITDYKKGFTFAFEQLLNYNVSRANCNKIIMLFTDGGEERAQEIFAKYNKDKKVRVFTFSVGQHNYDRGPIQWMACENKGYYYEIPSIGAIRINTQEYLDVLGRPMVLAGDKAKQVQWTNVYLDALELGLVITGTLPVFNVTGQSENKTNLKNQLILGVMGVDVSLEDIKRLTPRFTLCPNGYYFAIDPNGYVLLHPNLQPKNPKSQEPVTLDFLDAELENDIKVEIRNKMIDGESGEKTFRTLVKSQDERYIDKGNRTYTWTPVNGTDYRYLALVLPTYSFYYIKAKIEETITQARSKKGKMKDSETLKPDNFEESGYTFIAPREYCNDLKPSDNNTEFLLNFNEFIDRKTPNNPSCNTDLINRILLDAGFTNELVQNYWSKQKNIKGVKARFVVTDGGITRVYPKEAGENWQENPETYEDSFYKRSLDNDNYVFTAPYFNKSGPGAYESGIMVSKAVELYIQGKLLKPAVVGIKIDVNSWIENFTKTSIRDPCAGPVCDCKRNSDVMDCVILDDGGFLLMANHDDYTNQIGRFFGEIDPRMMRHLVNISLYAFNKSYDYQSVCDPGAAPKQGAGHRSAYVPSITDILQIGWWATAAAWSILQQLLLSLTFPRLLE
T3 sequence (P54290 945-1091 partner limits assumed, other chains not shown): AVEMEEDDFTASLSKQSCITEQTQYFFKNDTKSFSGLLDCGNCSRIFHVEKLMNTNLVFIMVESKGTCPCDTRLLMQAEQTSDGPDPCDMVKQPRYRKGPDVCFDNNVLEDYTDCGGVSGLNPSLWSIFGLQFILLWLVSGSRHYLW

α2A receptor = biological target: T4, α2A receptor (Homo sapiens, UniProt P08913); assay: Competition binding, [3H]rauwolscine, human α2A receptor; settings: [3H]rauwolscine, human receptor, LM(tk-) cell lysates; mean; read-out: PKi alpha-2 2a (converted)
T4 construct: host or cells: LM(tk-) cells, line L-α2A
T4 sequence (P08913 1-465): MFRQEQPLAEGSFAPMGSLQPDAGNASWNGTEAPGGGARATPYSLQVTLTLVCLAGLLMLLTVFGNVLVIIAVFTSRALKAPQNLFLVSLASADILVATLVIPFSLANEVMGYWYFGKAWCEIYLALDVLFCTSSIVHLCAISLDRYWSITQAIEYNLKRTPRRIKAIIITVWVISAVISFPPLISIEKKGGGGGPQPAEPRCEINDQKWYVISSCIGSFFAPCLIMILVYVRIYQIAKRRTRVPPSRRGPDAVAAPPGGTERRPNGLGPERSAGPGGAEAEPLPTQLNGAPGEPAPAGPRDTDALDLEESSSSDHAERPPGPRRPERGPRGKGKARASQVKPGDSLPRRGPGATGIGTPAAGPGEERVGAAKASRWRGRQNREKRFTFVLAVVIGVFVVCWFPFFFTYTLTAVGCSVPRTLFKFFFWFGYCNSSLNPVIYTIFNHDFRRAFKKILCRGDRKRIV
Source text: as §1, §2, §3

α2C receptor = biological target: T5, α2C receptor (Homo sapiens, UniProt P18825); assay: Competition binding, [3H]rauwolscine, human α2C receptor; settings: [3H]rauwolscine, human receptor, LM(tk-) cell lysates; mean; read-out: PKi alpha-2 2c (converted)
T5 construct: host or cells: LM(tk-) cells, line L-α2C
T5 sequence (P18825 1-462): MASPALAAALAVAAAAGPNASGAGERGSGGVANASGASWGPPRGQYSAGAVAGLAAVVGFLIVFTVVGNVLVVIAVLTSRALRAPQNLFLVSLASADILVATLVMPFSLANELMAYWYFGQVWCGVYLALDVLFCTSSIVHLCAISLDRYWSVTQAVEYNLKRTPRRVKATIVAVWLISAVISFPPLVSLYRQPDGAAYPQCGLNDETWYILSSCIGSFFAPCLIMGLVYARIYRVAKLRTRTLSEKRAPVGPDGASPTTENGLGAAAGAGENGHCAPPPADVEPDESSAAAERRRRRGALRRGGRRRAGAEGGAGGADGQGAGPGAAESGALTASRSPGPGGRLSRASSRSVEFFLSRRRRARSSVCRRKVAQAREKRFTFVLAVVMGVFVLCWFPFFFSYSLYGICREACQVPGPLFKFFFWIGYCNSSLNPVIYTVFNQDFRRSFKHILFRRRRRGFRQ
Source text: as §1, §2, §3

[2] = biological target: T6, α1C Human Adrenergic Receptor (Homo sapiens, UniProt P35348); assay: Radioligand binding, [3H]prazosin, cloned human α1C adrenergic receptor; settings: cloned human receptor, LM(tk-) cell membranes, mean, read-out: PKi alpha-1 1c (converted)
T6 construct: The entire coding region of α1C (1401 bp); expressed in transfected cells
T6 sequence (P35348 1-466): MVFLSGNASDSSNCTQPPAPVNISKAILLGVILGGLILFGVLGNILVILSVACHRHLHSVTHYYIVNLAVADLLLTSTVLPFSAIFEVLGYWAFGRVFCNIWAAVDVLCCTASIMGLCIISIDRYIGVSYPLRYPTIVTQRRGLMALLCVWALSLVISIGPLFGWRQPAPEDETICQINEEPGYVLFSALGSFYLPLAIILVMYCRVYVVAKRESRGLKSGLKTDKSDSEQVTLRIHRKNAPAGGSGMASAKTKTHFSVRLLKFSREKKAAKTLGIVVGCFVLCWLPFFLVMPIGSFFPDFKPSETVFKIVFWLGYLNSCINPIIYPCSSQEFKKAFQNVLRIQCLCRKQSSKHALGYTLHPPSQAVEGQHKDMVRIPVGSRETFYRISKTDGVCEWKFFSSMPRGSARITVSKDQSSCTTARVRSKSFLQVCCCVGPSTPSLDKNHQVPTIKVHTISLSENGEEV
Summary of the method: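 Stably transfected mouse LM(tk−) fibroblast membranes bearing the cloned human α1C adrenoceptor served as receptor source. Specific binding was taken as the portion of 0.5 nM [3H]prazosin displaceable by 10 μM phentolamine after 20 min at 37° C., pH 7.5, in Mg2+/ascorbate-containing Tris buffer.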

[3] = biological target: T7, α1B Human Adrenergic Receptor (Homo sapiens, UniProt P35368); assay: Radioligand binding, [3H]prazosin, cloned human α1B adrenergic receptor; settings: cloned human receptor, LM(tk-) cell membranes, mean, read-out: PKi alpha-1 1b (converted)
T7 construct: The entire coding region of α1B (1563 bp); expressed in transfected cells
T7 sequence (P35368 1-520): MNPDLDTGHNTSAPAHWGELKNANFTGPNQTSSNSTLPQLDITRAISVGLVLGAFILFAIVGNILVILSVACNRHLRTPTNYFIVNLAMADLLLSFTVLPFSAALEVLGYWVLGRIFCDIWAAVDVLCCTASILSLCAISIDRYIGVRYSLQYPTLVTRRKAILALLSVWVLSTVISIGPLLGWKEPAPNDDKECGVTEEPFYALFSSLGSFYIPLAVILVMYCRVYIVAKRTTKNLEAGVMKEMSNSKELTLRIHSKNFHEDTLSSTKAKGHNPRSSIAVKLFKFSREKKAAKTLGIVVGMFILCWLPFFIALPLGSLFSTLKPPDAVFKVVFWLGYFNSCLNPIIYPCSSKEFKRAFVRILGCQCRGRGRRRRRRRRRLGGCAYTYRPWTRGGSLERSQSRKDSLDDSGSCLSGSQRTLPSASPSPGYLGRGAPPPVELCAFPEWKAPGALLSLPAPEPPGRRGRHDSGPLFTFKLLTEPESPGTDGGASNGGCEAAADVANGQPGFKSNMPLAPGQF
Summary of the method: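 Membranes from stably transfected LM(tk−) cells, resuspended in 50 mM Tris-HCl, 1 mM MgCl2, 0.1% ascorbic acid, pH 7.5, were incubated with 0.5 nM [3H]prazosin for 20 min at 37° C. Nonspecific binding defined with 10 μM phentolamine; bound ligand separated by GF/B filtration.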

[4] = [3H]nitrendipine, rat cardiac muscle membranes, SEM and n in lines below, read-out: pKi Ca (converted)
[5] = [3H]nitrendipine, rat cardiac muscle membranes, mean, read-out: PKi Ca (converted)
[6] = [3H]prazosin, cloned human receptor, LM(tk-) cell membranes, mean, read-out: PKi alpha-1 1a (converted)

CC1=C(C(N)=O)C(c2ccc([N+](=O)[O-])cc2)C(C(=O)NCCCN2CCC(c3ccccc3)(c3ccccc3)CC2)=C(C)N1 (racemic) [(±)-2]
pKi alpha-1 1a [1]: 6.22
pKi alpha-2 2b (α2B receptor): 6.38
Ki (L-type calcium channel; [4]): 200 µM

CC1=C(C(N)=O)C(c2ccc([N+](=O)[O-])cc2)C(C(=O)NCCCN2CCC(c3ccccc3)(c3ccccc3)CC2)=C(C)N1 (single isomer, unassigned; (+)) [(+)-2]
pKi alpha-1 1a ([1]; [3H]prazosin, cloned human receptor in LM(tk-) cell membranes, SEM and n in lines below): 6.40
pKi alpha-2 2b (α2B receptor): 6.40
pKi Ca (L-type calcium channel; [3H]nitrendipine, rat cardiac muscle membranes, SEM and n in lines below): 4.11

CC1=C(C(N)=O)C(c2ccc([N+](=O)[O-])cc2)C(C(=O)NCCCN2CCC(c3ccccc3)(c3ccccc3)CC2)=C(C)N1 (single isomer, unassigned; (-)) [(−)-2]
pKi alpha-1 1a [1]: 6.46
pKi alpha-2 2b (α2B receptor): 6.56
Ki (L-type calcium channel; [4]): 1820 µM

COC(=O)C1(c2ccccc2)CCN(CCCNC(=O)C2=C(C)NC(C)=C(C(C)=O)C2c2ccc([N+](=O)[O-])cc2)CC1 (stereo not shown) [Example 201, 5-Acetyl-1,4-dihydro-2,6-dimethyl-3-{N-[3-(4-methoxycarbonyl-4-phenylpiperidin-1-yl)propyl]}carboxamido-4-(4-nitrophenyl)pyridine]
Ki (α2A receptor): 4.47 µM
Ki (α2C receptor): 3.24 µM
melting point: 94 to 95 °C
Ki (L-type calcium channel; [5]): 67.6 µM

CCNC(=O)C1=C(CC)NC(COCCN=[N+]=[N-])=C(C(=O)NCCCN2CCC(C(=O)OC)(c3ccccc3)CC2)C1c1ccc([N+](=O)[O-])cc1 (stereo not shown) [Example 230, 2-((2-Azidoethyl)oxy)methyl-6-ethyl-5-N-ethylcarboxamido-1,4-dihydro-3-(N-(3-(4-methoxycarbonyl-4-phenylpiperidin-1-yl)propyl))carboxamido-4-(4-nitro)phenylpyridine]
Ki [1, 6]: 1.78 µM
Ki [2]: 0.00871 µM
Ki [3]: 0.692 µM
melting point: 70 °C (dec.)
Ki (L-type calcium channel; [5]): 9.12 µM

CCC1=C(C(N)=O)C(c2ccc([N+](=O)[O-])cc2)C(C(=O)NCCCN2CCC(C(=O)OC)(c3ccccc3)CC2)=C(COCCN=[N+]=[N-])N1 (stereo not shown) [Example 231, 2-((2-Azidoethyl)oxy)methyl-5-carboxamido-6-ethyl-1,4-dihydro-3-(N-(3-(4-methoxycarbonyl-4-phenylpiperidin-1-yl)propyl))carboxamido-4-(4-nitro)phenylpyridine]
Ki [1, 6]: 1.23 µM
Ki [2]: 0.00437 µM
Ki [3]: 0.501 µM
melting point: 70 to 75 °C
Ki (L-type calcium channel; [5]): 389 µM

CCC1=C(C(=O)OC)C(c2ccc([N+](=O)[O-])cc2)C(C(=O)NCCCN2CCC(C(=O)OC)(c3ccccc3)CC2)=C(COCCN=[N+]=[N-])N1 (stereo not shown) [Example 232, 2-((2-Azidoethyl)oxy)methyl-6-ethyl-5-methoxycarbonyl-3-(N-(3 (4-methoxycarbonyl-4-phenylpiperidin-1-yl)propyl))carbo xamido-1,4-dihydro-4-(4-nitro)phenylpyridine]
Ki ([1]; PKi alpha-1 1a): 0.417 µM
Ki [2]: 0.00759 µM
Ki [3]: 0.219 µM
melting point: 50 to 60 °C
Ki (L-type calcium channel; PKi Ca): 0.692 µM
